Test results reported in patent publication US12344879B2, “Transgenic bacteria with expanded amino acid usage and nucleic acid molecules for use in the same” (BOARD OF REGENTS, THE UNIVERSITY OF TEXAS SYSTEM, priority 2015, dated 2025).
“And” between values parts separate entries of the source, which are not always exact repeats. Equal values may be shown once.

Legend:
[1] = system: E. coli dihydrofolate reductase (DHFR) position 39; assay: Selenocysteine incorporation into DHFR P39X by intact mass spectrometry; set-up: species or system E. coli RTΔA.2; conditions: for serine incorporation in DHFR: mass spectrometry; for selenocysteine incorporation efficiency in DHFR: peak areas of the mass spectrum
Excerpt: To further enhance the efficiency of selenocysteine incorporation, a number of steps were taken to improve the levels of Sec-tRNA^Sec relative to Ser-tRNA^Sec, including increasing the level of SelA, decreasing the gene dose of tRNA^SecUx, and co-expressing a phosphoseryl-tRNA^Sec kinase (see Example 2 below). […] In order to further validate selenocysteine incorporation, the Pseudomonas aeruginosa metalloprotein azurin was also expressed with its essential cysteine (C112) replaced by selenocysteine and the human selenoprotein cellular glutathione peroxidase (GPx-1) (FIGS. 6a-6e and 8a-8b). For azurin, this chemical change had previously proven possible only through expressed protein ligation,^22 the essential cysteine could now be biologically replaced with selenocysteine with good efficiency as measured by mass spectrometry of the intact protein.
RTΔA.2 transformants containing pDHFR-P39X-AU and pRSF-eSelAK were cultured ON in LB medium containing 100 μg·mL^−1 ampicillin, 50 μg·mL^−1 kanamycin and 1 μM Na2SeO3. Overnight cultures were diluted 1/500 in a final volume of 2 L LB medium containing 50 μg·mL^−1 ampicillin, 25 μg·mL^−1 kanamycin and 5 μM Na2SeO3 and incubated with agitation for 24 hours at 37° C. Cells were harvested by centrifugation at 8000×g for 10 min and resuspended in 20 mL of wash buffer (100 mM Tris, 150 mM NaCl, 1 mM EDTA at pH 8.0) with protease inhibitor cocktail (cOmplete, mini EDTA free, Roche) and lysozyme at 1 mg·mL^−1. Following a 20 min incubation at 4° C. cells were lysed by sonication (Model 500, Fisher Scientific) and clarified by three times by centrifugation at 35000×g for 30 min. Lysate was passed through a 0.2 µm filter and seleno-DHFR recovered using Strep-Tactin affinity chromatography following the manufacturer's instructions (GE Healthcare). Eluate was concentrated to 3 mL and dialyzed against 50 mM NH4Ac pH 6.5 prior to the isolation of seleno-DHFR by size exclusion FPLC (ÄKTA, GE Healthcare). Seleno-DHFR was produced using tRNA^SecUx with a yield of 68 μg·L^−1 and 100% incorporation efficiency. Seleno-DHFR was produced using tRNA^UTu with a yield of 131 μg·L^−1 and 38.1% incorporation efficiency. DHFR containing serine at position 39 was produced with a yield of 225 μg·L^−1.
Intact protein samples were analyzed using methods described previously (Ellefson et al., 2014). Azurin, DHFR and GPx-1 samples were buffer exchanged into LC-MS grade water using 10 kDa molecular weight cutoff filters. […] UVPD mass spectra were also deconvoluted using Xtract and then analyzed using ProsightPC 3.0. […] Incorporation efficiencies were calculated by dividing the area of the modified protein peak by the summed areas of the unmodified protein peak and the modified protein peak. […]

[2] = system: E. coli formate dehydrogenase H (FdhH); assay: Benzyl viologen assay; format: cell-based, E. coli DHΔabcF; conditions: FdhH U140TAG or U140S reporter, co-expressed with SelA, anaerobic
Procedure: The tRNA^Sec variant containing the G7-C66:U49-G65:C50-U64 (SEQ ID NO: 18) antideterminant sequence was designated tRNA^SecUx and was compared with the previously designed chimera (tRNA^UTu) and with a tRNA^Sec derivative designed to have an antideterminant region that should tightly bind EF-Tu (tRNA^UG; FIG. 2a). […] The hybrid tRNA^UTu incorporated selenocysteine and could grow on 75 μg·ml^−1. […] To further confirm tRNA^SecUx incorporated selenocysteine in response to amber stop codons, a standard colorimetric assay was employed based on the activity of the endogenous E. coli selenoprotein formate dehydrogenase H (FdhH) (FIG. 2b).
E. coli DH10B cells containing pRSFDuet-1 and pcat-pheS were used as a positive control. DHΔabcF cells harboring p15A-fdhF U140S and pRSF-UX-eSelA, and p15A-fdhF U140X and pRSF-UX-ΔSelA were used as controls for selenocysteine dependent formate dehydrogenase activity. Transformants were grown overnight at 37° C. in LB medium supplemented with 12.5 μg·mL^−1 tetracycline and 50 μg·mL^−1 kanamycin. Overnight cultures were diluted 1/20 in a final volume of 2 ml and incubated for three hours. Cultures were normalized to OD600=0.5 and 5 μl aliquots were dotted on LB agar plates containing 3.75 μg·mL^−1 tetracycline, 12.5 μg·mL^−1 kanamycin, 5 mM sodium formate, 10 μM Na2MoO4, 1 μM Na2SeO3 and 20 μg·mL^−1 L-cysteine. Plates were incubated at 37° C. for 3 h under aerobic conditions and then transferred to anaerobic conditions at 37° C. for 60 h. Upon removal from the anaerobic chamber, plates were immediately overlaid with agar containing 1 mg·mL^−1 benzyl viologen, 250 mM sodium formate and 25 mM KH2PO4 at pH 7.0. Plates were photographed within 1 h of overlaying.

Substance | serine incorporation in DHFR [1] | selenocysteine incorporation efficiency in DHFR [1] | FdhH activity (reduction of benzyl viologen) [2]
tRNA^SecUx: Evolved E. coli tRNA^Sec variant with the G7-C66:U49-G65:C50-U64 antideterminant sequence and CUA anticodon | no detectable background | ~100% | produced active FdhH
tRNA^UTu (GGAAGATGTGGCCGAGCGGTTGAAGGCACCGGT; expressed or natural sequence) | 62% | 38% and 38.1% | produced active FdhH
